The subject of the experiment is CD2F1 mice, L1210 leukemia ip, survival T/C. Nature of the experiment: NCI In Vivo Anticancer Drug Screen. Data for tumor model L1210 Leukemia (intraperitoneal) in CD2F1 (CDF1) mice. The note with it: higher = longer survival. The method in brief:
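Mice carrying a transplanted tumor received test compound or vehicle alone. The value is the measurement in the treated group divided by that in the vehicle-treated control group.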

Where “and” joins values, the source holds several entries; their conditions need not be identical. Equal values may be shown once. Toxic doses and inconclusive results are not listed.

For `OC(C1CO1)C(O)C1CO1` (configuration not stated), the T/C is 101 % of control (endpoint: mean survival time, dose: 0.13 mg/kg/injection, schedule: Q03HX008 (ip), vehicle: saline); 105 % of control (endpoint: mean survival time, dose: 0.25 mg/kg/injection, schedule: Q03HX008 (ip), vehicle: saline); 104 % of control (endpoint: mean survival time, dose: 0.25 mg/kg/injection, schedule: Q03HX016 (ip), vehicle: saline); 104 % of control (endpoint: mean survival time, dose: 0.25 mg/kg/injection, schedule: Q03HX024 (ip), vehicle: saline); 117 % of control and 119 % of control and 121 % of control (endpoint: mean survival time, dose: 0.5 mg/kg/injection, schedule: Q01DX009 (ip), vehicle: saline); 104 % of control (endpoint: mean survival time, dose: 0.5 mg/kg/injection, schedule: Q01DX009 (sc), vehicle: saline). The T/C is, setting by setting: (endpoint: mean survival time, dose: 0.5 mg/kg/injection, schedule: Q03HX008 (ip), vehicle: saline) 112 % of control; (endpoint: mean survival time, dose: 0.5 mg/kg/injection, schedule: Q03HX016 (ip), vehicle: saline) 115 % of control; (endpoint: mean survival time, dose: 1.0 mg/kg/injection, schedule: Q01DX001 (ip), vehicle: saline) 98 % of control and 108 % of control; (endpoint: mean survival time, dose: 1.0 mg/kg/injection, schedule: Q01DX001 (sc), vehicle: saline) 106 % of control; (endpoint: mean survival time, dose: 1.0 mg/kg/injection, schedule: Q01DX009 (sc), vehicle: saline) 114 % of control; (endpoint: mean survival time, dose: 1.0 mg/kg/injection, schedule: Q03HX024 (ip), vehicle: saline) 177 % of control. Moreover, the T/C by setting is: (endpoint: mean survival time, dose: 1.0 mg/kg/injection, schedule: Q04DX003 (ip), vehicle: saline) 107 % of control; (endpoint: mean survival time, dose: 1.4 mg/kg/injection, schedule: Q04DX003 (ip), vehicle: saline) 96 % of control; (endpoint: mean survival time, dose: 2.0 mg/kg/injection, schedule: Q01DX001 (ip), vehicle: saline) 116 % of control and 111 % of control; (endpoint: mean survival time, dose: 2.0 mg/kg/injection, schedule: Q01DX001 (sc), vehicle: saline) 111 % of control; (endpoint: mean survival time, dose: 2.0 mg/kg/injection, schedule: Q03HX008 (ip), vehicle: saline) 171 % of control; (endpoint: mean survival time, dose: 2.0 mg/kg/injection, schedule: Q03HX016 (ip), vehicle: saline) 201 % of control. The T/C runs as follows: (endpoint: mean survival time, dose: 2.0 mg/kg/injection, schedule: Q03HX024 (ip), vehicle: saline) 109 % of control; (endpoint: mean survival time, dose: 2.0 mg/kg/injection, schedule: Q04DX003 (ip), vehicle: saline) 123 % of control and 104 % of control and 112 % of control; (endpoint: mean survival time, dose: 2.0 mg/kg/injection, schedule: Q08DX002 (ip), vehicle: saline) 118 % of control; (endpoint: mean survival time, dose: 3.0 mg/kg/injection, schedule: Q01DX009 (ip), vehicle: saline) 192 % of control; (endpoint: mean survival time, dose: 3.0 mg/kg/injection, schedule: Q04DX003 (ip), vehicle: saline) 119 % of control; (endpoint: mean survival time, dose: 4.0 mg/kg/injection, schedule: Q01DX001 (ip), vehicle: saline) 115 % of control and 121 % of control. The T/C is, setting by setting: (endpoint: mean survival time, dose: 4.0 mg/kg/injection, schedule: Q01DX001 (sc), vehicle: saline) 112 % of control; (endpoint: mean survival time, dose: 4.0 mg/kg/injection, schedule: Q01DX009 (ip), vehicle: saline) 204 % of control and 247 % of control; (endpoint: mean survival time, dose: 4.0 mg/kg/injection, schedule: Q01DX009 (sc), vehicle: saline) 163 % of control; (endpoint: mean survival time, dose: 4.6 mg/kg/injection, schedule: Q01DX009 (ip), vehicle: saline) 182 % of control; (endpoint: mean survival time, dose: 4.6 mg/kg/injection, schedule: Q04DX003 (ip), vehicle: saline) 162 % of control; (endpoint: mean survival time, dose: 5.0 mg/kg/injection, schedule: Q01DX001 (ip), vehicle: saline) 123 % of control. The T/C was 171 % of control (endpoint: mean survival time, dose: 6.7 mg/kg/injection, schedule: Q04DX003 (ip), vehicle: saline); 156 % of control (endpoint: mean survival time, dose: 7.0 mg/kg/injection, schedule: Q01DX001 (ip), vehicle: saline); 106 % of control (endpoint: mean survival time, dose: 7.0 mg/kg/injection, schedule: Q01DX009 (ip), vehicle: saline); 190 % of control (endpoint: mean survival time, dose: 7.0 mg/kg/injection, schedule: Q04DX003 (ip), vehicle: saline); 155 % of control and 156 % of control (endpoint: mean survival time, dose: 8.0 mg/kg/injection, schedule: Q01DX001 (ip), vehicle: saline); 96 % of control and 97 % of control (endpoint: mean survival time, dose: 8.0 mg/kg/injection, schedule: Q01DX009 (ip), vehicle: saline). The T/C is 105 % of control (endpoint: mean survival time, dose: 8.0 mg/kg/injection, schedule: Q01DX009 (sc), vehicle: saline); 189 % of control and 446 % of control (endpoint: mean survival time, dose: 8.0 mg/kg/injection, schedule: Q04DX003 (ip), vehicle: saline); 184 % of control (endpoint: mean survival time, dose: 8.0 mg/kg/injection, schedule: Q08DX002 (ip), vehicle: saline); 288 % of control (endpoint: mean survival time, dose: 10.0 mg/kg/injection, schedule: Q04DX003 (ip), vehicle: saline); 100 % of control (endpoint: mean survival time, dose: 10.6 mg/kg/injection, schedule: Q01DX009 (ip), vehicle: saline); 243 % of control (endpoint: mean survival time, dose: 10.6 mg/kg/injection, schedule: Q04DX003 (ip), vehicle: saline). For the same compound, the T/C runs as follows: (endpoint: mean survival time, dose: 16.0 mg/kg/injection, schedule: Q01DX001 (ip), vehicle: saline) 175 % of control; (endpoint: mean survival time, dose: 16.0 mg/kg/injection, schedule: Q01DX001 (sc), vehicle: saline) 174 % of control; (endpoint: mean survival time, dose: 16.0 mg/kg/injection, schedule: Q04DX003 (ip), vehicle: saline) 116 % of control; (endpoint: mean survival time, dose: 16.0 mg/kg/injection, schedule: Q08DX002 (ip), vehicle: saline) 162 % of control; (endpoint: mean survival time, dose: 20.0 mg/kg/injection, schedule: Q01DX001 (ip), vehicle: saline) 92 % of control; (endpoint: median survival time, dose: 2.0 mg/kg/injection, schedule: Q01DX001 (ip), vehicle: saline) 119 % of control and 104 % of control. The T/C is, setting by setting: (endpoint: median survival time, dose: 4.0 mg/kg/injection, schedule: Q01DX001 (ip), vehicle: saline) 117 % of control; (endpoint: median survival time, dose: 4.0 mg/kg/injection, schedule: Q03DX003 (ip), vehicle: saline) 175 % of control and 222 % of control; (endpoint: median survival time, dose: 6.0 mg/kg/injection, schedule: Q03DX003 (ip), vehicle: saline) 189 % of control and 266 % of control; (endpoint: median survival time, dose: 8.0 mg/kg/injection, schedule: Q03DX003 (ip), vehicle: saline) 206 % of control and 253 % of control; (endpoint: median survival time, dose: 12.0 mg/kg/injection, schedule: Q03DX003 (ip), vehicle: saline) 229 % of control; (endpoint: median survival time, dose: 16.0 mg/kg/injection, schedule: Q01DX001 (ip), vehicle: saline) 168 % of control and 182 % of control. Further, the T/C is 113 % of control and 104 % of control (endpoint: median survival time, dose: 32.0 mg/kg/injection, schedule: Q01DX001 (ip), vehicle: saline); 117 % of control and 105 % of control (endpoint: median survival time, dose: 64.0 mg/kg/injection, schedule: Q01DX001 (ip), vehicle: saline).

Take `C=CC(O)Cc1ccccc1` (configuration not stated) (tested in a mixture with another compound): the T/C is 98 % of control (endpoint: mean survival time, dose: 75.0 mg/kg/injection, schedule: Q01DX009 (ip), vehicle: saline); 101 % of control (endpoint: mean survival time, dose: 150.0 mg/kg/injection, schedule: Q01DX009 (ip), vehicle: saline); 107 % of control (endpoint: mean survival time, dose: 300.0 mg/kg/injection, schedule: Q01DX009 (ip), vehicle: saline).

On to `[N-]=[N+]=NC1=C(Br)C(=O)OC1COC(=O)c1ccccc1` (configuration not stated), for which the T/C reads like this: (endpoint: mean survival time, dose: 50.0 mg/kg/injection, schedule: Q04DX002 (ip), vehicle: saline with Tween-80) 90 % of control; (endpoint: mean survival time, dose: 100.0 mg/kg/injection, schedule: Q04DX002 (ip), vehicle: saline with Tween-80) 90 % of control.

For `COC(=O)C12OCC34C(CC5C(C)C6=CC(=O)OC6=CC5(C)C3C(O)C1O)OC(=O)C(OC(C)=O)C24` (configuration not stated), the T/C was 98 % of control (endpoint: median survival time, dose: 0.13 mg/kg/injection, schedule: Q01DX009 (ip), vehicle: saline + alcohol); 98 % of control (endpoint: median survival time, dose: 0.25 mg/kg/injection, schedule: Q01DX009 (ip), vehicle: saline + alcohol); 98 % of control (endpoint: median survival time, dose: 0.5 mg/kg/injection, schedule: Q01DX009 (ip), vehicle: saline + alcohol); 100 % of control (endpoint: median survival time, dose: 1.0 mg/kg/injection, schedule: Q01DX009 (ip), vehicle: saline + alcohol); 102 % of control and 103 % of control (endpoint: median survival time, dose: 2.0 mg/kg/injection, schedule: Q01DX009 (ip), vehicle: saline + alcohol); 102 % of control (endpoint: median survival time, dose: 4.0 mg/kg/injection, schedule: Q01DX009 (ip), vehicle: saline + alcohol). Further, the T/C by setting is: (endpoint: median survival time, dose: 8.0 mg/kg/injection, schedule: Q01DX009 (ip), vehicle: saline + alcohol) 94 % of control; (endpoint: median survival time, dose: 16.0 mg/kg/injection, schedule: Q01DX009 (ip), vehicle: saline + alcohol) 96 % of control.

On to `CN(C)S(=O)(=O)Oc1ccccc1[N+](=O)[O-]`, for which the T/C reads like this: (endpoint: mean survival time, dose: 100.0 mg/kg/injection, schedule: Q01DX009 (ip), vehicle: saline with Tween-80) 100 % of control; (endpoint: mean survival time, dose: 200.0 mg/kg/injection, schedule: Q01DX009 (ip), vehicle: saline with Tween-80) 97 % of control; (endpoint: mean survival time, dose: 400.0 mg/kg/injection, schedule: Q01DX009 (ip), vehicle: saline with Tween-80) 98 % of control.

The values are drawn from PubChem BioAssay AID256 (DTP/NCI, 2004).
